{
  "source": "patent US7498406B2",
  "about": "“Substantially cell membrane impermeable compound and use thereof” (priority 1999, dated 2009)",
  "key": {"Thioredoxin": {"target": "T1, Thioredoxin (Homo sapiens, UniProt P10599)", "T1 construct": "purchased American Diagnostica, Greenwich, Conn; host or cells: E. coli", "T1 sequence (P10599 whole entry)": "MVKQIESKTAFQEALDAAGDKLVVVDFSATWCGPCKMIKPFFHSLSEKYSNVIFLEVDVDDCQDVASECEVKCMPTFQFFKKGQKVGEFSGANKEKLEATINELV", "test": "GSAO-B labelling of purified protein, streptavidin-peroxidase blot", "type": "binding", "conditions": "100 μM GSAO-B, 5 μM protein, 30 minutes", "description": "(§1) FIG. 14. Interaction of GSAO-B with PDI and thioredoxin. A Structure of GSAO-B. B Purified human recombinant PDI (5 μM), human recombinant thioredoxin (5 μM) or bovine serum albumin (5 ? M) was incubated with dithiothreitol (10 μM) for 60 minutes at room temperature to ensure that the active site disulfide(s) of PDI and thioredoxin were in the reduced dithiol form. GSAO-B (100 ? M) or GSAO-B and DMP (400 μM) was then added and the reactions incubated for 30 minutes at room temperature. The labelled PDI (lanes 1 and 2), thioredoxin (lanes 3 and 4) and albumin (lane 5) (75 pmoles) was resolved on […] SDS-PAGE, transferred to PVDF membrane, and blotted with streptavidin-peroxidase to detect the GSAO-B label. The positions of Mr markers are shown at left.\n(§2) Human recombinant PDI and thioredoxin bound GSAO-B (FIG. 14). Recombinant human protein disulfide isomerase (PDI) was produced in E. coli and purified according to Jiang et al. (1999). In the experiment, purified PDI, thioredoxin or albumin as negative control were incubated with a 2-fold molar excess of dithiothreitol for 60 minutes to ensure that the active site disulfides of PDI and thioredoxin were in the reduced dithiol state. The proteins were then incubated with GSAO-B or GSAO-B and a 4-fold molar excess of DMP for 30 minutes. Equivalent moles of the labeled proteins were resolved on SDS-PAGE, transferred to PVDF membrane, and blotted with streptavidin-peroxidase to detect the GSAO-B label. Samples were resolved on 4-15% SDS-PAGE under non-reducing conditions (Laemmli, 1970) and transferred to PVDF membrane. Proteins were detected by Western blot using an anti-PDI murine monoclonal antibody (Jiang et al., 1999) (used at 2 μg per mL). Rabbit anti-mouse horseradish peroxidase conjugated antibodies (Dako Corporation, Carpinteria, Calif.) were used at 1:2000 dilution. GSAO-B-labeled proteins were blotted with streptavidin peroxidase (Amersham, Sydney, NSW) used at 1:1000 dilution. […] Chemiluminescence films were analysed using a GS-700 Imaging Densitometer and Multi-Analyst software (Bio-Rad, Hercules, Calif.)."}, "human recombinant PDI": {"target": "T2, human recombinant PDI (Homo sapiens, UniProt P07237)", "T2 construct": "made in house; host or cells: E. coli", "T2 sequence (P07237 18-508)": "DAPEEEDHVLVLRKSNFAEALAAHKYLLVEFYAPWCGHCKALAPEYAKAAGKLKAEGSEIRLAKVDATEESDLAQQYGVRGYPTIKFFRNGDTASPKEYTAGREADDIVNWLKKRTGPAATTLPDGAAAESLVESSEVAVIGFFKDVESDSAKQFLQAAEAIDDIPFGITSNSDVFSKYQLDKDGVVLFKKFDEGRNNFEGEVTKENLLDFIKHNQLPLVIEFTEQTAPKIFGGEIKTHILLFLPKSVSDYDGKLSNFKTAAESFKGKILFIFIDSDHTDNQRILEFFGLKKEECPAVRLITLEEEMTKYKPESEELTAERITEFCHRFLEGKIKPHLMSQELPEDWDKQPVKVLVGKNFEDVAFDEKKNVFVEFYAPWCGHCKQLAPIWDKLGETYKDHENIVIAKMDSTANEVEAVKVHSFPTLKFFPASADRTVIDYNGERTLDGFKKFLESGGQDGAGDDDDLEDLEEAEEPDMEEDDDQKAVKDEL", "test": "GSAO-B labelling of purified protein, streptavidin-peroxidase blot", "type": "binding", "description": "as §1, §2"}, "bovine serum albumin": {"target": "bovine serum albumin (Bos taurus, UniProt P02769)", "sequence (P02769 25-607)": "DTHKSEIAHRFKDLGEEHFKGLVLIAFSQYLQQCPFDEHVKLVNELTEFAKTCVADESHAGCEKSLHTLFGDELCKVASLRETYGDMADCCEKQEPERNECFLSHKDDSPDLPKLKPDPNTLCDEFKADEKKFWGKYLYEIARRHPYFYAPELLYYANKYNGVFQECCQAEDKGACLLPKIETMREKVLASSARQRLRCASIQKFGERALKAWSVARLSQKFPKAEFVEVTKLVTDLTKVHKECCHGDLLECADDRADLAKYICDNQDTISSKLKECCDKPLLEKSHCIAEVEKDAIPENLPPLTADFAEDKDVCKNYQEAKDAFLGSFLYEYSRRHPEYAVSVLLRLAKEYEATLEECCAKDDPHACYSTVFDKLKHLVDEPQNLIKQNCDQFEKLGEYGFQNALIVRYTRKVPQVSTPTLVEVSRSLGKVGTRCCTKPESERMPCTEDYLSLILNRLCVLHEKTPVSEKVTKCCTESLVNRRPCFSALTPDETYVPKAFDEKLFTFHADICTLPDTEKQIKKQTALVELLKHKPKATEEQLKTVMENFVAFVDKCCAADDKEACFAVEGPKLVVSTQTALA", "test": "GSAO-B labelling of purified protein, streptavidin-peroxidase blot (negative control protein)", "type": "binding", "conditions": "100 μM GSAO-B, 5 μM protein, 30 minutes", "description": "as §1\nHuman recombinant PDI and thioredoxin bound GSAO-B (FIG. 14). Recombinant human protein disulfide isomerase (PDI) was produced in E. coli and purified according to Jiang et al. (1999). […] Proteins were detected by Western blot using an anti-PDI murine monoclonal antibody (Jiang et al., 1999) (used at 2 μg per mL). […] Chemiluminescence films were analysed using a GS-700 Imaging Densitometer and Multi-Analyst software (Bio-Rad, Hercules, Calif.)."}, "HMEC-1 or HUVE cells": {"system": "HMEC-1 or HUVE cells", "test": "GSAO-B labelling of endothelial cell surface proteins", "type": "cell-based, human", "description": "FIG. 16. Identification of endothelial cell surface proteins that contain closely spaced dithiols). A The surface of HMEC-1 or HUVE cells (2×10^6 cells in 0.4 mL) was labelled with GSAO-B (100 μM) for 30 minutes at room temperature in the absence (lanes 1 and 3) or presence of DMP (400 μM) (lane 2). The endothelial cells were lysed and the lysate from both incubations was resolved on 4-15% SDS-PAGE, transferred to PVDF membrane, and blotted with streptavidin peroxidase to detect the GSAO-B label. The results represent labelling of 3×10^4 HMEC-1 (lanes 1 and 2) of HUVE cells (lane 3). The positions of Mr markers are shown at left. B Densitometry profile of the surface labelled proteins (lanes 1 and 3). The apparent Mr's of the individual proteins are indicated.\nHuman umbilical vein endothelial cells (HUVEC) (Wall et al., 1978) and the human dermal microvascular endothelial cell line, HMEC-1 (Ades et al., 1992), were harvested and cultured as indicated. Endothelial cells (5×10^6) were detached from culture flasks using 5 mM EDTA in PBS at 37° C., washed 3 times with PBS, resuspended in PBS containing 100 μM of GSAO-B in the absence or presence of 400 μM DMP, and incubated for 30 minutes at room temperature. The cells were washed 3 times with 1 mL of PBS, resuspended in 0.2 mL of ice cold 50 mM Tris/HCl, pH 8 buffer containing 0.5 M NaCl, 1% Triton X-100, 10 μM leupeptin, 2 mM PMSF (Sigma Chemical Company, St, Louis, Mo.), 5 mM EDTA and 10 μM aprotinin (Bayer Australia Ltd., Sydney, NSW), and sonicated on ice. On some occasions the cell lysates were incubated with streptavidin-agarose (Sigma, Castle Hill, NSW) beads (25 μL of packed beads in a total volume of 1 mL) for 60 minutes at 4° C. with rotary mixing. Bound proteins were washed 5 times with 50 mM Tris/HCl, pH 8 buffer containing 0.15 M NaCl and 0.05% Triton X-100, resolved on SDS-PAGE, transferred to PVDF membrane, and the GSAO-B-labeled proteins detected by Western blot."}, "PDI": {"system": "PDI", "test": "GSAO-B labelling of PDI on the endothelial cell surface", "type": "cell-based", "conditions": "100 μM GSAO-B, 30 minutes", "description": "FIG. 17. PDI was one of the GSAO-B labelled proteins on the endothelial cell surface. HUVEC (5×10^6 cells in 0.75 mL) were labelled with GSAO-B (100 μM) for 30 minutes at 37° C. in the absence (lanes 1) or presence of DMP (400 μM) (lane 2). The cells were lysed and incubated with streptavidin-agarose beads to collect the biotin-labelled proteins. The labelled proteins were resolved on 4-15% SDS-PAGE, transferred to PVDF membrane, and blotted with anti-PDI monoclonal antibodies. The results represent labelling of 5×10^6 endothelial cells. The positions of Mr markers are shown at left.\nBAE cells were labeled with GSAO-B in the absence or presence of DMP, lysed and incubated with streptavidin-agarose beads to collect the biotin-labeled proteins. The labeled proteins were eluted from the beads, resolved on SDS-PAGE, transferred to PVDF membrane, and blotted with anti-PDI polyclonal antibodies."}, "cell surface CD4": {"target": "T3, cell surface CD4 (Homo sapiens, UniProt P01730)", "T3 construct": "host or cells: CEM-T4", "test": "Labelling of cell surface CD4 on CEM-T4 cells", "type": "cell-based", "conditions": "100 μM, 30 min", "description": "FIG. 32. Labelling of cell surface CD4 with GSAO-B. CEM-T4 were labelled with either MPB or GSAO-B. The biotin-labelled proteins were collected on streptavidin-agarose beads, resolved on 5-15% SDS-PAGE and Western blotted using Leu3a monoclonal antibody. Lane 1 is MPB-labelled CEM-T4 CD4 and lane 2 is GSAO-B-labelled CEM-T4 CD04. Lane 3 is a control experiment where GSAO-B was incubated with CEM-T4 cells in the presence of 400 μM DMP. Biotin-labelled proteins were from 2×10^6 cells. The positions of Mr markers in kDa are shown at left.\nCEM-T4 cells were obtained from the NIH AIDS Research and Reference Reagent Program, Rockville, Mass., CEM-T4 (1 mL of 5×10^6 per mL in Hanks balanced salt solution) were incubated with either sulfosuccinimidobiotin (SSB), 3-(N-maleimidylpropionyl)biocytin (MPB), or GSAO-B (100 μM) for 30 min at room temperature SSB was from Pierce, Rockford, Ill. while MPB was from Molecular Probes, Eugene, Oreg.. Unreacted SSB was quenched with glycine (200 μM), while unreacted MPB was quenched with reduced glutathione (GSH, 200 μM) for 30 min at room temperature. The labelled cells were washed twice with PBS and sonicated in 1 mL of 50 mM Tris-HCl, 0.5 M NaCl, 1% (v/v) Triton X-100, 10 μM leupeptin, 10 μM aprotinin, 2 mM phenylmethylsulfonyl fluoride, 5 mM EDTA, pH 8.0 buffer at 4° C. […]\nLabelled CD4 was detected by blotting with the Leu3a monoclonal antibody (FIG. 32)."}, "[1]": {"test": "Stability of the trivalent arsenicals towards oxidation", "type": "physicochemical", "conditions": "slowed by removal of O2, lower pH or glycine", "excerpt": "This oxidation can be slowed in three ways; removal of dissolved O2 from solutions containing the arsenoxides, lowering the pH of these solutions, or by addition of glycine to the solutions. Glycine is routinely used to prevent oxidation of the stock solutions of the trivalent organoarsenicals. Similar to the reaction between 2,3-dimercaptopropanol and R—As(OH)2 in which a 5-membered dithioarsonite (XI) is formed, reaction of glycine with R—As(OH)2 is thought to give a 5-membered cyclic 1,3,2-oxazarsolidin-5-one (XII)."}, "HIVIIIB": {"system": "HIVIIIB", "test": "HIVIIIB entry into / infection of A3.01 cells, p24 antigen", "type": "cell-based, HIV", "conditions": "100 μM, 30 minutes before virus", "description": "FIG. 33. […] Cells were washed and incubated in complete medium at 5% CO2 and 37° C. for up to 10 days. […] B Concentration dependence of GSAO. […] Cells were washed, incubated in complete medium at 5% CO2 and 37° C. for 3 days and the conditioned medium collected and assayed for p24 antigen.\nFIG. 34. Inhibition of HIVIIIB infection of A3.01 cells by GSAO.\nA3.01 human T cells were exposed to GSAO for 30 minutes and then to HTLVIIIB virus for 2 hours after which the cells were washed and then cultured for up to 10 days. HTLVIIIB and A3.01 cells were obtained from the NIH AIDS Research and Reference Reagent Program, Rockville, Mass. Virus stocks were made and infectivity titer determined using A3.01 cells and the p24 antigen assay (Coulter, Miami, Fla.). A3.01 cells were cultured in RPMI medium containing 10% fetal calf serum. […] Cell numbers and cell viability were determined at the times specified by staining cells with trypan blue and counting using a Neubauer haemacytometer. Cell viability was measured as a percentage of live cells to total cells."}},
  "data": [
    {"molecule": "4-(N-(S-(N-(6-(N-(6-(N-(biotinoyl)amino)hexanoyl)amino)hexanoyl)glutathionyl)acetyl)amino)phenylarsenoxide [GSAO-B]", "values": [
      {"measurement": "incorporation of GSAO-B label", "setting": "Thioredoxin", "result": "incorporated GSAO-B"},
      {"measurement": "incorporation of GSAO-B label", "setting": "human recombinant PDI; 100 μM GSAO-B, 5 μM protein, 30 minutes", "result": "incorporated GSAO-B"},
      {"measurement": "density of labeling of PDI relative to thioredoxin", "setting": "human recombinant PDI; equivalent moles of protein", "result": "approximately twice that of thioredoxin"},
      {"measurement": "incorporation of GSAO-B label", "setting": "bovine serum albumin", "result": "albumin did not"},
      {"measurement": "incorporation in the presence of DMP", "setting": "HMEC-1 or HUVE cells; 100 μM GSAO-B with 400 μM DMP", "result": "effectively no incorporation of GSAO-B in the presence of DMP"},
      {"measurement": "proteins on the endothelial cell surface that bind the compound", "setting": "HMEC-1 or HUVE cells; 100 μM, 30 minutes", "result": "approximately ten proteins"},
      {"measurement": "labelling of cell surface PDI", "setting": "PDI", "result": "PDI was one of the proteins on the endothelial cell surface that incorporated GSAO-B"},
      {"measurement": "labelling of T cell surface CD4", "setting": "cell surface CD4", "result": "incorporated GSAO-B"}
    ]},
    {"molecule": "O=[As]c1ccc(NC(=O)CBr)cc1", "note": "(stereo not shown) [BRAO, 4-(N-(bromoacetyl)amino)-phenylarsenoxide]", "values": [
      {"measurement": "stability of solutions towards oxidation", "setting": "[1]", "result": "deactivated over time by oxidation"}
    ]},
    {"molecule": "O=C(CCCC[C@@H]1SC[C@@H]2NC(=O)N[C@@H]21)NCCCC[C@H](NC(=O)CCN1C(=O)C=CC1=O)C(=O)O", "note": "[MPB, 3-(N-maleimidylpropionyl)biocytin, reference compound]", "values": [
      {"measurement": "inhibition of HIVIIIB entry", "setting": "HIVIIIB", "result": "Inhibition of HIVIIIB entry"}
    ]}
  ]
}
